Reference: patent US10301295B2, “Herbicidal compounds” (Syngenta Participations AG, priority 2014, dated 2019)
Where two headings read alike, the source gives them in different places.

Columns and labels:
Test in all cases: Glasshouse assay for herbicidal activity, pre-/post-emergence (percentage phytotoxicity)
Assay type in all cases: in vivo
[1] = test system: Alopecurus myosuroides (ALOMY); conditions: Alopecurus myosuroides, Rate 250 g/ha, 100%=total damage, 0%=no damage
Protocol: (§1) Seeds of a variety of monocotyledonous and dicotyledonous test plants are sown in standard soil in pots. The plants are cultivated for one day (for pre-emergence) or for about 12 days (for post-emergence) under controlled conditions in a glasshouse (warm climate species at 24/18° C., cool climate species at 20/16° C., both at day/night; 16 hours light; 65% humidity). The test plants are then grown on, in a glasshouse (greenhouse) under controlled conditions (warm climate species at 24/18° C., cool climate species at 20/16° C., both at day/night; 16 hours light; 65% humidity) and are watered twice daily. 15 days after application of the test herbicide (15DAA) (for post-emergence), and 20 days after application of the test herbicide (20DAA) (for pre-emergence), the test plants are evaluated visually, and an assessed percentage phytotoxicity score is given for each herbicidal application on each plant species (with 100%=total damage to plant; 0%=no damage to plant). The plant species tested are as follows: Alopecurus myosuroides (ALOMY), Avena fatua (AVEFA), Lolium perenne (LOLPE), Echinochloa crus-galli (ECHCG).

[2] = test system: Avena fatua (AVEFA); conditions: Avena fatua, Rate 250 g/ha, 100%=total damage, 0%=no damage
Protocol: as §1

[3] = test system: Echinochloa crus-galli (ECHCG); conditions: Echinochloa crus-galli, Rate 250 g/ha, 100%=total damage, 0%=no damage
Protocol: as §1

[4] = test system: Lolium perenne (LOLPE); conditions: Lolium perenne, Rate 250 g/ha, 100%=total damage, 0%=no damage
Protocol: as §1

[5] = 360 h, post-emergence, visual assessment 15 DAA, read-out: Post-emergence herbicidal activity (percentage phytotoxicity), ALOMY POST
[6] = 480 h, pre-emergence, visual assessment 20 DAA, read-out: Pre-emergence herbicidal activity (percentage phytotoxicity), ALOMY PRE
[7] = post-emergence, 360 h, post-emergence, visual assessment 15 DAA, read-out: Post-emergence herbicidal activity (percentage phytotoxicity), AVEFA POST
[8] = pre-emergence, 480 h, pre-emergence, visual assessment 20 DAA, read-out: Pre-emergence herbicidal activity (percentage phytotoxicity), AVEFA PRE
[9] = post-emergence, 360 h, post-emergence, visual assessment 15 DAA, read-out: Post-emergence herbicidal activity (percentage phytotoxicity), ECHCG POST
[10] = pre-emergence, 480 h, pre-emergence, visual assessment 20 DAA, read-out: Pre-emergence herbicidal activity (percentage phytotoxicity), ECHCG PRE
[11] = post-emergence, 360 h, post-emergence, visual assessment 15 DAA, read-out: Post-emergence herbicidal activity (percentage phytotoxicity), LOLPE POST
[12] = pre-emergence, 480 h, pre-emergence, visual assessment 20 DAA, read-out: Pre-emergence herbicidal activity (percentage phytotoxicity), LOLPE PRE

Row | SMILES | pest or weed control at 250 g/ha [1, 5] [%] | pest or weed control at 250 g/ha [1, 6] [%] | pest or weed control at 250 g/ha [2, 7] [%] | pest or weed control at 250 g/ha [2, 8] [%] | pest or weed control at 250 g/ha [3, 9] [%] | pest or weed control at 250 g/ha [3, 10] [%] | pest or weed control at 250 g/ha [4, 11] [%] | pest or weed control at 250 g/ha [4, 12] [%]
1 | Cc1cc(C)c(C2C(=O)CC(CCNc3ncc(Cl)cn3)C2=O)c(C)c1 (stereo not drawn) [Compound A125] | 90 | 90 | 90 | 80 | 100 | 90 | 100 | 90
2 | Cc1cc(-c2ncc(Br)cn2)cc(C)c1C1C(=O)CC(CCNC(=O)C2=NOC(C)(C)C2)C1=O (stereo not drawn) [Compound A116] | 100 | 90 | 100 | 90 | 100 | 90 | 100 | 90
3 | CC#Cc1cc(C)c(C2C(=O)CC(CCNC(=O)Nc3ccccn3)C2=O)c(C)c1 (stereo not drawn) [Compound A92] | 90 | 70 | 100 | 30 | 100 | 80 | 100 | 70
4 | Cc1cc(C)c(C2C(=O)CC(CCNc3ncc(F)cn3)C2=O)c(C)c1 (stereo not drawn) [Compound A121] | 100 | 100 | 100 | 100 | 100 | 100 | 90 | 100
5 | CC#Cc1cc(C)c(C2C(=O)CC(CCNc3ccc(C#N)cn3)C2=O)c(C)c1 (stereo not drawn) [Compound A112] | 100 | 100 | 100 | 90 | 100 | 100 | 100 | 90
6 | Cc1cc(C)c(C2C(=O)C[C@@H](CCNC(=O)C3=NOC(C)(C)C3)C2=O)c(C)c1 (stereo partly drawn) [Compound A102] | 100 | 100 | 100 | 90 | 100 | 100 | 100 | 100
7 | Cc1cc(-n2cc(Cl)cn2)cc(C)c1C1C(=O)CC(CCNc2ccc([N+](=O)[O-])cn2)C1=O (stereo not drawn) [Compound A99] | 70 | 0 | 90 | 0 | 100 | 0 | 60 | 0
8 | Cc1cc(C)c(C2C(=O)CC(CCNc3ccc([N+](=O)[O-])cc3)C2=O)c(C)c1 (stereo not drawn) [Compound A105] | 90 | 20 | 80 | 20 | 90 | 10 | 80 | 20
9 | Cc1cc(C)c(C2C(=O)CC(CCNc3ncccc3C#N)C2=O)c(C)c1 (stereo not drawn) [Compound A124] | 80 | 60 | 60 | 40 | 100 | 90 | 80 | 80
